We go through 8 compounds from patent US20030212121A1, “Substituted N-(1,4,5,6-tetrahydro-cyclopentapyrazol-3-yl) derivatives, their production and use as pharmaceutical agents” (priority 2001, published 2003).

What is called melting point is the temperature, or range, at which the solid turns liquid.

Each structure is given as a SMILES string.

In turn, `O=C(Cc1ccc(-c2ccc(F)cc2)cc1)Nc1n[nH]c2c1CCC2` [Example 1.2] gave a melting point of 161 to 163 °C.
For `CC(=O)c1cccc(-c2ccc(CC(=O)Nc3n[nH]c4c3CCC4)cc2)c1` [Example 1.7], the melting point turned out to be 150 °C.
With `CC(=O)c1ccc(-c2ccc(CC(=O)Nc3n[nH]c4c3CCC4)cc2)cc1` [Example 1.8], the melting point lay in the range of 112 to 114 °C.
In the case of `COc1cccc(-c2ccc(CC(=O)Nc3n[nH]c4c3CCC4)cc2)c1` [Example 1.5] it was 110 to 114 °C.
In the case of `O=C(Cc1ccc(-c2cccc(F)c2)cc1)Nc1n[nH]c2c1CCC2` [Example 1.0, 2-(3′-Fluoro-biphenyl-4-yl)-N-(1,4,5,6-tetrahydro-cyclopentapyrazol-3-yl)-acetamide] it was 180 to 181 °C; in that of `O=C(Cc1ccc(-c2ccccc2F)cc1)Nc1n[nH]c2c1CCC2` [Example 1.3], 179 to 181 °C.
Turning to `COc1ccc(-c2ccc(CC(=O)Nc3n[nH]c4c3CCC4)cc2)cc1` [Example 1.6], the melting point was in the range of 168 to 172 °C.
For `COc1ccccc1-c1ccc(CC(=O)Nc2n[nH]c3c2CCC3)cc1` [Example 1.4] the value was 150 °C.
